Measured values as given in patent US9796700B2 (Celgene CAR LLC, priority 2013, dated 2017).
Where two headings read alike, the source gives them in different places.

What was measured:
[1] = biological target: Erk1 (Homo sapiens (Human), UniProt P27361); assay: Protein Mass Modification Assay (intact protein MALDI); format: binding
Summary of the method: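 Human Erk1 was incubated 60 min at room temperature with a 10-fold molar excess of compound, then analysed as intact protein by MALDI with sinapinic acid matrix. The centroid mass shift versus untreated protein was divided by compound molecular weight to give percent modified protein.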

[2] = biological target: MEK1 activated ERK1 (Homo sapiens (Human), UniProt P27361); assay: Omnia continuous-read kinase assay for potency against MEK1 activated ERK1; format: biochemical
Excerpt: Omnia Assay Protocol for Potency Assessment Against MEK1 Activated ERK1:
The protocol below describes continuous-read kinase assays to measure potency of compounds against activated ERK1 enzyme. The mechanics of the assay platform are best described by the vendor (Invitrogen, Carlsbad, Calif.) on their website at the following URL: invitrogen.com/site/us/en/home.html.
Briefly, a 1.25× stock of ERK1 enzyme (14-439-K) from Millipore (Billerica, Mass.), 5×ATP (AS001A) and ST17-Sox conjugated peptide substrate (KNZ1171C) were prepared in 1× kinase reaction buffer consisting of 20 mM Tris, pH 7.5, 5 mM MgCl2, 1 mM EGTA, 5 mM β-glycerophosphate, 5% glycerol (10× stock, KB002A) and 0.2 mM DTT. 10 μL of ATP/ST17-sox peptide substrate mix was combined with 0.5 μL volume of 100% DMSO and serially diluted compounds were prepared in 100% DMSO in a Corning (#3574) 384-well, white, non-binding surface microtiter plate (Corning, N.Y.). Kinase reactions were started with the addition of 40 μL of ERK1 solution and monitored every 71 seconds for 30-240 minutes at λex360/λem485 in a Synergy plate reader from BioTek (Winooski, Vt.). At the conclusion of each assay, progress curves from each well were examined for linear reaction kinetics and fit statistics (R^2, 95% confidence interval, absolute sum of squares). Initial velocity (0 minutes to ˜30+ minutes) from each reaction was determined from the slope of a plot of relative fluorescence units vs time (minutes or seconds) and then plotted against inhibitor concentration to estimate ^AppIC50 from log [Inhibitor] vs Response, Variable Slope model in GraphPad Prism from GraphPad Software (San Diego, Calif.).
[Reagent] used in optimized protocol:
[ERK1]=4 nM, [ATP]=50 μM, [ST17-Sox]=10 μM (ATP ^appKM 48 μM)
The results of this assay show the degree of inhibition of ERK activity, which is a direct measurement of inhibition of ERK activity. Results from this assay are reported in Table A under the column “ERK1 Omnia WT ATP KM IC50 (nM).”

[3] = MEK1 activated ERK1, WT, ATP at KM

Sequence of Erk1 (P27361 whole entry, looked up): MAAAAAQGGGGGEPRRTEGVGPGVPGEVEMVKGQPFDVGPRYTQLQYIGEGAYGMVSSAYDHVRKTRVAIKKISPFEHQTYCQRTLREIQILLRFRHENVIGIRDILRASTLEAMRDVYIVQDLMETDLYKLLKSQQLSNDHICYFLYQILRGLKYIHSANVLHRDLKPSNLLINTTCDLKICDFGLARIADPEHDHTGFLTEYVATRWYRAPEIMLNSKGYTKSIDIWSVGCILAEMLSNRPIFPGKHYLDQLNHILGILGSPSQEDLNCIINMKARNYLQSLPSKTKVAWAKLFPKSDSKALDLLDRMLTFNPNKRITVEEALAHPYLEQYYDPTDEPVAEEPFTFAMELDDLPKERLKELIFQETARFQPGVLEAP
Sequence of MEK1 activated ERK1 (P27361 whole entry): as the sequence (P27361 whole entry, looked up) above

| ERK1 Mass Mod (%) [1] | IC50 [2, 3] | Structure (SMILES) | IC50 ([2]; read-out: ERK1 Omnia WT ATP KM IC50) |
| --- | --- | --- | --- |
| E (provided a mass modification of ≧70%) | < 100 nM | C=CC(=O)Nc1cc(OC)ccc1Nc1nc(Nc2cc(OC)nc(N3CCN(C(C)=O)CC3)c2)ncc1C(F)(F)F [Compound I-91, N-(2-((2-((2-(4-Acetylpiperazin-1-yl)-6-methoxypyridin-4-yl)amino)-5-(trifluoromethyl)pyrimidin-4-yl)amino)-5-methoxyphenyl)acrylamide] | – |
| E (provided a mass modification of ≧70%) | < 100 nM | C=CC(=O)Nc1ccccc1Nc1nc(Nc2cc(OC)nc(OC)c2)ncc1C(F)(F)F [Compound I-95, N-(2-((2-((2,6-Dimethoxypyridin-4-yl)amino)-5-(trifluoromethyl)pyrimidin-4-yl)amino)phenyl)acrylamide] | – |
| E (provided a mass modification of ≧70%) | < 100 nM | C=C(C)S(=O)(=O)Nc1cc(C)ccc1Nc1nc(Nc2cc(C(C)=O)ccc2C)ncc1C(F)(F)F [Compound I-98, N-(2-((2-((5-acetyl-2-methylphenyl)amino)-5-(trifluoromethyl)pyrimidin-4-yl)amino)-5-methylphenyl)prop-1-ene-2-sulfonamide] | – |
| E (provided a mass modification of ≧70%) | < 100 nM | C=CC(=O)Nc1ccccc1Nc1nc(N[C@H]2CCC[C@@H](C(N)=O)C2)ncc1C(F)(F)F [Compound I-118, (1R,3S)-3-((4-((2-acrylamidophenyl)amino)-5-(trifluoromethyl)pyrimidin-2-yl)amino)cyclohexanecarboxamide] | – |
| E (provided a mass modification of ≧70%) | < 100 nM | C=CC(=O)Nc1ccccc1Nc1nc(N[C@@H]2CCC[C@H](C(N)=O)C2)ncc1Cl [Compound I-119, (1S,3R)-3-((4-((2-acrylamidophenyl)amino)-5-chloropyrimidin-2-yl)amino)cyclohexanecarboxamide] | – |
| E (provided a mass modification of ≧70%) | < 100 nM | C=CC(=O)Nc1ccccc1Nc1nc(N[C@H]2CCC[C@@H](C(N)=O)C2)ncc1Cl [Compound I-120, (1R,3S)-3-((4-((2-acrylamidophenyl)amino)-5-chloropyrimidin-2-yl)amino)cyclohexanecarboxamide] | – |
| E (provided a mass modification of ≧70%) | < 100 nM | C=CC(=O)Nc1ccccc1Nc1nc(N[C@H]2CCCN(C(=O)CO)C2)ncc1Cl [Compound I-123, (S)—N-(2-((5-chloro-2-((1-(2-hydroxyacetyl)piperidin-3-yl)amino)pyrimidin-4-yl)amino)phenyl)acrylamide] | – |
| E (provided a mass modification of ≧70%) | < 100 nM | C=CC(=O)Nc1ccccc1Nc1nc(NC2CCN(C=O)CC2)ncc1Cl [Compound I-124, N-(2-((5-chloro-2-((1-formylpiperidin-4-yl)amino)pyrimidin-4-yl)amino)phenyl) acrylamide] | – |
| E (provided a mass modification of ≧70%) | < 100 nM | C=CC(=O)Nc1ccccc1Nc1nc(N[C@H]2CCCN(S(C)(=O)=O)C2)ncc1Cl [Compound I-125, (S)—N-(2-((5-chloro-2-((1-(methylsulfonyl)piperidin-3-yl)amino)pyrimidin-4-yl)amino)phenyl)acrylamide] | – |
| G (proived a mass modification ≦30%) | > 1000 nM | CCOCCC(=O)Nc1ccccc1Nc1nc(Nc2cc(C(N)=O)ccc2C)ncc1Cl [Compound I-130] | – |
| E (provided a mass modification of ≧70%) | < 100 nM | C=CC(=O)Nc1ccccc1Nc1nc(N[C@H]2CCCN(C(=O)CC)C2)ncc1Cl [Compound I-131, (S)—N-(2-((5-chloro-2-((1-propionylpiperidin-3-yl)amino)pyrimidin-4-yl)amino)phenyl)acrylamide] | – |
| E (provided a mass modification of ≧70%) | > 1000 nM | C=CC(=O)Nc1ccccc1Nc1nc(N[C@H]2CCCN(C(=O)OC(C)(C)C)C2)ncc1Cl [Compound I-132, (S)-tert-butyl 3-((4-((2-acrylamidophenyl)amino)-5-chloropyrimidin-2-yl)amino) piperidine-1-carboxylate] | – |
| E (provided a mass modification of ≧70%) | < 100 nM | C=CC(=O)Nc1ccccc1Nc1nc(N[C@H]2CCCN(C(=O)[C@@H](C)O)C2)ncc1Cl [Compound I-134, N-(2-((5-chloro-2-(((S)-1-((R)-2-hydroxypropanoyl)piperidin-3-yl)amino)pyrimidin-4-yl)amino)phenyl)acrylamide] | – |
| E (provided a mass modification of ≧70%) | < 100 nM | C=CC(=O)Nc1ccccc1Nc1nc(N[C@H]2CCCN(C(=O)C3CC3)C2)ncc1Cl [Compound I-136, (S)—N-(2-((5-chloro-2-((1-(cyclopropanecarbonyl)piperidin-3-yl)amino)pyrimidin-4-yl)amino)phenyl)acrylamide] | – |
| E (provided a mass modification of ≧70%) | < 100 nM | C=CC(=O)Nc1ccccc1Nc1nc(N[C@H]2CCCN(C(=O)C(C)C)C2)ncc1Cl [Compound I-137, (S)—N-(2-((5-chloro-2-((1-isobutyrylpiperidin-3-yl)amino)pyrimidin-4-yl)amino)phenyl)acrylamide] | – |
| E (provided a mass modification of ≧70%) | > 1000 nM | C=CC(=O)Nc1ccccc1Nc1nc(Nc2ccc(NC(C)=O)cc2C(F)(F)F)ncc1Cl [Compound I-150, N-(2-((2-((4-acetamido-2-(trifluoromethyl)phenyl)amino)-5-chloropyrimidin-4-yl)amino)phenyl)acrylamide] | – |
| G (proived a mass modification ≦30%) | > 1000 nM | C=CC(=O)Nc1ccccc1Nc1ccnc(Nc2ccc(N3CCN(C(C)=O)CC3)cc2OC)n1 [Compound I-154, N-(2-((2-((4-(4-acetylpiperazin-1-yl)-2-methoxyphenyl)amino)pyrimidin-4-yl)amino)phenyl)acrylamide] | – |

| Structure (SMILES) | ERK1 Mass Mod (%) [1] | IC50 [2, 3] | IC50 ([2]; read-out: ERK1 Omnia WT ATP KM IC50) |
| --- | --- | --- | --- |
| C=CC(=O)Nc1cc(C)ccc1Nc1nc(N[C@H]2CCCN(C(C)=O)C2)ncc1Cl [Compound I-139, (S)—N-(2-((2-((1-acetylpiperidin-3-yl)amino)-5-chloropyrimidin-4-yl)amino)-5-methylphenyl)acrylamide] | E (key: E: provided a mass modification of ≧70%; F: provided a mass modification of 31-69%; G: proived a mass modification ≦30%) | – | < 100 nM |
| C=CC(=O)Nc1cc(OC)ccc1Nc1nc(Nc2ccc(N3CCN(C(=O)OC(C)(C)C)CC3)cc2OC)ncc1Cl [Compound I-151, tert-butyl 4-(4-((4-((2-acrylamido-4-methoxyphenyl)amino)-5-chloropyrimidin-2-yl)amino)-3-methoxyphenyl)piperazine-1-carboxylate] | F (provided a mass modification of 31-69%) | > 1000 nM | – |
| C=CC(=O)Nc1ccccc1Nc1nc(Nc2ccc(N3CCN(C(C)=O)CC3)cc2OC)ncc1F [Compound I-153, N-(2-((2-((4-(4-acetylpiperazin-1-yl)-2-methoxyphenyl)amino)-5-fluoropyrimidin-4-yl)amino)phenyl)acrylamide] | F (provided a mass modification of 31-69%) | > 1000 nM | – |
| C=CC(=O)Nc1cc(OC)ccc1Nc1nc(Nc2ccc(-n3ccnc3)cc2C#N)ncc1Cl [Compound I-157, N-(2-((5-chloro-2-((2-cyano-4-(1H-imidazol-1-yl)phenyl)amino)pyrimidin-4-yl)amino)-5-methoxyphenyl)acrylamide] | F (provided a mass modification of 31-69%) | > 1000 nM | – |
| C=CC(=O)Nc1cc(OC)ccc1Nc1nc(Nc2ccc(N3CCC[C@H]3CO)cc2C(F)(F)F)ncc1Cl [Compound I-158, (S)—N-(2-((5-chloro-2-((4-(2-(hydroxymethyl)pyrrolidin-1-yl)-2-(trifluoromethyl)phenyl)amino)pyrimidin-4-yl)amino)-5-methoxyphenyl)acrylamide] | F (provided a mass modification of 31-69%) | > 1000 nM | – |
| C=CC(=O)Nc1cc(OC)ccc1Nc1nc(Nc2ccc(N3CCC[C@H]3CO)cc2OC)ncc1Cl [Compound I-159, (S)—N-(2-((5-chloro-2-((4-(2-(hydroxymethyl)pyrrolidin-1-yl)-2-methoxyphenyl)amino)pyrimidin-4-yl)amino)-5-methoxyphenyl)acrylamide] | F (provided a mass modification of 31-69%) | > 1000 nM | – |
